Data on seven compounds can be found in publication PMC12686126, “LL‐37 Inhibits TMPRSS2‐Mediated S2' Site Cleavage and SARS‐CoV‐2 Infection but Not Omicron Variants” (Cell Proliferation, 2025).

One series concerns SARS‐CoV‐2. The conditions noted are these: cited from earlier work.
Series [1] concerns SARS‐CoV‐2 spike pseudovirus. It counts as cell-based.
Another series relates to Delta spike. Format: cell-based, SARS‐CoV‐2 Delta.
The subject of series [2] is SARS‐CoV‐2 spike. Format: cell-based.
For series [3], the system named is BA.4/5 spike. Format: cell-based, SARS‐CoV‐2 Omicron BA.4/5.
The subject of a further series is BA.1 spike. Format: cell-based, SARS‐CoV‐2 Omicron BA.1.
The subject of a further series is TMPRSS2. The series can be described thus: TMPRSS2 activity measurement. Format: cell-based, human. The conditions noted are these: 293T‐T2 cells, 2 h at 37°C; Boc‐Phe‐Ser‐Arg‐MCA 100 μM, fluorescence 360/460 nm; LL‐37 0–20 μg/mL, CM and E64d 0–100 μM. The procedure: 293T‐T2 cells (5 × 10^4/well) in a black 96‐well flat‐bottom plate were treated for 2 h at 37°C with LL‐37 (0, 1, 5, 10, 20 μg/mL), camostat mesylate (0, 0.1, 0.5, 1, 5, 10, 50, 100 μM, MedChemExpress), or E64d (0, 0.1, 0.5, 1, 5, 10, 50, 100 μM, MedChemExpress). The peptide and inhibitors were prepared with DMEM free of FBS. To measure the proteolytic activity of TMPRSS2, the medium was replaced with 100 μL of DMEM free of FBS and phenol red and containing 100 μM of Boc‐Phe‐Ser‐Arg‐MCA (Peptide, Japan). The fluorescence intensity was measured after 2 h of incubation at 37°C using a microplate reader (Biotek, USA). The excitation/emission wavelengths were 360/460 nm. The values were expressed as a percent of fluorescence intensity relative to the control. Camostat mesylate and E64d were used as the positive and negative controls respectively. All procedures were carried out in the dark.

The conditions of series [4]: ref [44]; cited from earlier work.
In the next series the test system is BA.1 spike S2 subunit. Format: cell-based, SARS‐CoV‐2 Omicron BA.1.
Another series concerns Delta spike S2 subunit. Format: cell-based, SARS‐CoV‐2 Delta.
The subject of the next series is BA.3 spike pseudovirus. It counts as cell-based, SARS‐CoV‐2 Omicron BA.3.
For another series, the system named is Beta spike pseudovirus. It counts as cell-based, SARS‐CoV‐2 Beta.
Series [5] concerns BA.4/5 spike. Set-up: species or system mouse (BALB/c). To be noted: mouse, in vivo.
In a further series the test system is Delta spike pseudovirus. It counts as cell-based, SARS‐CoV‐2 Delta.
For series [6], the system named is SARS‐CoV‐2 spike pseudovirus (S1 and S2 subunits) attached to 293T‐A2 cells. It counts as cell-based.
The conditions of series [7]: no reference given; cited from earlier work.
Series [8] relates to BA.4/5 spike. Set-up: species or system mouse (BALB/c). To be noted: mouse, in vivo. The source holds these as a separate data set.
The test system of series [9] is BA.1 spike pseudovirus (S1 and S2 subunits) attached to 293T‐A2 cells. Format: cell-based, SARS‐CoV‐2 Omicron BA.1.
The subject of series [10] is 293T‐A2 and 293T‐Mock cell membranes. It counts as cell-based. To be noted: 293T-A2 vs 293T-Mock cells treated 2 h with LL-37; western blot (Figure S4A). A general note: In western blotting, separated proteins are transferred to a membrane and probed.
The subject of series [11] is NF‐kB p50 and p65 subunits. To be noted: leading to immunosuppression; ref [67], [68]; cited from earlier work.
The test system of a further series is FPRL‐1 and CXCR2. To be noted: receptors involved in chemotaxis of monocytes, neutrophils and lymphocytes; ref [65], [66]; cited from earlier work.
The test system of series [12] is SARS‐CoV‐2 spike pseudovirus. It counts as cell-based. This is another data set of the same source.
Another series relates to BA.4/5 spike pseudovirus. Format: cell-based, SARS‐CoV‐2 Omicron BA.4/5.
The test system of the next series is S2 subunit of BA.1 spike. Format: binding, SARS‐CoV‐2 Omicron BA.1.
In series [13] the test system is SARS‐CoV‐2 spike pseudovirus. Format: cell-based. This is another data set of the same source.
A further series concerns BA.4/5 spike S2 subunit. Format: cell-based, SARS‐CoV‐2 Omicron BA.4/5.
Series [14] has as its system SARS‐CoV‐2 spike. Set-up: species or system mouse (BALB/c). The conditions noted are these: mouse, in vivo.
The test system of series [15] is SARS‐CoV‐2 spike S1 and S2 subunits. Format: binding.
The subject of series [16] is BA.2.12.1 spike pseudovirus. It counts as cell-based, SARS‐CoV‐2 Omicron BA.2.12.1.
Series [17] concerns SARS‐CoV‐2 spike S2 subunit. It counts as cell-based.
A further series deals with FPR‐2 receptor. The conditions noted are these: leading to immunosuppression; ref [67], [68]; cited from earlier work.
Series [18] deals with BA.4/5 spike pseudovirus (S1 and S2 subunits) attached to 293T‐A2 cells. Format: cell-based, SARS‐CoV‐2 Omicron BA.4/5.
The test system of series [19] is receptor binding domain (RBD) of spike S1 and the ACE2 receptor. To be noted: by binding to the RBD and/or ACE2; ref [36], [37], [41], [42]; cited from earlier work.
For the next series, the system named is BA.2 spike pseudovirus. Format: cell-based, SARS‐CoV‐2 Omicron BA.2.
A further series concerns TLR3, TLR7, or TLR9. The conditions noted are these: binds DNA/RNA, elevates type I interferon response; ref [63], [64]; cited from earlier work.
The subject of a further series is BA.1 spike pseudovirus. Format: cell-based, SARS‐CoV‐2 Omicron BA.1.
Series [20] relates to SARS‐CoV‐2 spike. Set-up: species or system mouse (BALB/c). To be noted: mouse, in vivo. This is another data set of the same source.
The test system of series [21] is SARS‐CoV‐2 spike S2 subunit. Format: binding. To be noted: pH 9.6.

Entries after “also recorded” stand apart in the source; their conditions may differ. Counter-ions that a name gives are not always drawn.

In the case of `COC(=O)C[C@](O)(CCCC(C)(C)O)C(=O)O[C@@H]1C(OC)=C[C@]23CCCN2CCc2cc4c(cc2[C@H]13)OCO4` [homoharringtonine], the “inhibition of SARS‐CoV‐2 entry and replication” value in the series on SARS‐CoV‐2 is listed as “high inhibition”.
As for `CNC(=O)[C@@H](NC(=O)[C@H](CC(C)C)[C@H](O)C(=O)NO)C(C)(C)C` [marimastat, reference compound], the “inhibition of SARS‐CoV‐2‐induced membrane fusion” value with SARS‐CoV‐2 was “inhibitory activity against SARS‐CoV‐2‐induced membrane fusion at sub‐micromolar levels”. Further, in [1], the “reduction of pseudovirus‐induced RLU” value was roughly 25%.
Regarding “KRKSFDGFKELILKGRQEIKFKRDIFLVNLRETRPSV [KR‐37, reference compound]”, the “inhibition of cell–cell fusion” value with Delta spike, with SARS‐CoV‐2 spike [2], in the series on BA.4/5 spike [3] and with BA.1 spike was “showed no inhibition” throughout.
For `O=C(CC1NCCCC1O)Cn1cnc2cc(Br)c(Cl)cc2c1=O` (stereo not shown) [halofuginone], in the series with SARS‐CoV‐2, the “inhibition of SARS‐CoV‐2 entry and replication” value was “high inhibition”.
As to `CN(C)C(=O)COC(=O)Cc1ccc(OC(=O)c2ccc(NC(=N)N)cc2)cc1` [CM, camostat mesylate, reference compound], the “suppression of cellular TMPRSS2 activity” value in the series with TMPRSS2 is “suppressed cellular TMPRSS2 activity at sub‐micromolar concentrations”. For the same compound, in the series with SARS‐CoV‐2, the “antiviral activity against SARS‐CoV‐2” value is recorded as “shows antiviral activity against SARS‐CoV‐2”. The “reduction of pseudovirus‐induced RLU” value in series [1] is listed as “about 60%”.
For the compound “LLGDFFRKSKEKIGKEFKRIVQRIKDFLRNLVPRTES [LL‐37]”, in series [4], the “attachment to lipid bilayer” value is given as “can attach to lipid bilayer via the C‐terminal VPRTES tail”. In addition, the “generation of S2' fragment” value is “did not significantly reduce” in the series with BA.1 spike S2 subunit, “consistent result with that of SARS‐CoV‐2” in the series with Delta spike S2 subunit, “did not significantly reduce” in the series on BA.4/5 spike S2 subunit and “remarkably reduced” in [17]. In addition, the “inhibition of pseudovirus entry” value was “inhibitory effects were compromised” with BA.3 spike pseudovirus; “significantly inhibit” in the series with Beta spike pseudovirus; “significantly inhibit” in the series on Delta spike pseudovirus; “inhibitory effects were compromised” in the series on BA.4/5 spike pseudovirus; “inhibitory effects were compromised” in series [16]; “inhibitory effects were compromised” with BA.2 spike pseudovirus. Besides, the “inhibition of pseudovirus entry” value in the series on BA.1 spike pseudovirus is reported as “inhibitory effects were compromised”. For the same compound, the “IgG responses and titers” value was “no difference and low levels to background” with BA.4/5 spike [5]; “no significant difference” in the series with SARS‐CoV‐2 spike [14]. In addition, the “plasma membrane‐attached spike (S1 and S2 subunits)” value in series [6], in series [9] and in series [18] was “equal quantity” each time. Also, the “inhibition of cell–cell fusion” value in the series on Delta spike is recorded as “inhibited”; in the series with SARS‐CoV‐2 spike [2], “inhibited”; in the series on BA.4/5 spike [3], “compromised inhibition”; with BA.1 spike it was “compromised inhibition”. Moreover, the “inhibition of fusion, pretreatment vs treatment during infection” value in the series with Delta spike (10 μg/mL) and in the series with SARS‐CoV‐2 spike [2] (10 μg/mL) was “stronger inhibition of fusion than treatment during infection” throughout. The “overall positive net charge” value in [7] is given as “+6”. Besides, the “IgM responses and titers” value in the series with BA.4/5 spike [8] is “no difference and low levels to background”; in the series on SARS‐CoV‐2 spike [20] it was “elevated IgM responses and titers”. The “LL‐37 attachment to cell membrane” value in series [10] is listed as “could attach to the cell membrane independent of the ACE2 expression”. Moreover, the “prevention of NF‐kB translocation” value in series [11] was “prevent the translocation of NF‐kB p50 and p65 subunits”. Besides, the receptor binding result in the series with FPRL‐1 and CXCR2 is “directly bind with receptors such as FPRL‐1 and CXCR2”. Besides, the “prevention of pseudovirus entry” value in series [12] is “prevented; also recorded: not if added 2 h post infection (hpi) and 4 hpi”. Also, the “binding of S2 subunit to immobilised LL‐37” value in the series on S2 subunit of BA.1 spike is given as “much lower binding”; in series [21], “much stronger binding”. Also, in the series with TMPRSS2, the “suppression of cellular TMPRSS2 activity” value is “not LL‐37 or E64d suppressed”. The “reduction of RLU caused by LL‐37 with endosomal inhibitor” value in series [13] was “no significant difference”. The IgG responses entry in the series with SARS‐CoV‐2 spike [14] is listed as “enhanced”. The “spike subunit bound to plasma membrane facilitated by LL‐37” value in series [15] is reported as “S2 subunit rather than the S1 subunit”. Further, the “spike subunits bridged by LL‐37 to plasma membranes” value in series [15] is recorded as “bridged more S2 subunits than S1 subunits”. Further, the receptor interaction entry in the series on FPR‐2 receptor is given as “interact with the FPR‐2 receptor”. For the same compound, the “block of RBD–ACE2 interaction” value in [19] is on record as “block the interaction”. Also, the “effect on TLR signalling” value in the series with TLR3, TLR7, or TLR9 is on record as “augment signalling via TLR3, TLR7, or TLR9”.
Regarding α1‐antitrypsin, the “inhibition of SARS‐CoV‐2 entry and replication” value in the series on SARS‐CoV‐2 is recorded as “high inhibition”.
